Our source for the GI50, half-life and AUC(0-t) values is patent US8143282B2, “Heterocyclic compounds” (S*BIO Pte Ltd., priority 2005, dated 2012).

The structures appear in SMILES notation.

One data set concerns HCT116. Description: Cell-based proliferation assay for GI50 (CyQUANT), HCT116. The conditions noted are these: Homo sapiens, HCT-116; HCT116, 96 h treatment; read-out: Cellular or Growth Inhibition Activity, GI50, HCT116. The procedure:
(§1) Human colon cancer cell lines (Colo205, HCT116), Ovarian cancer cell line (A2780), Hepatoma cell line (HEP3B), Prostate cancer cell line (PC3) were obtained from ATCC or ECACC. Colo205 cells were cultivated in RPMI 1640 containing 2 mM L-Glutamine, 5% FBS, 1.0 mM Na Pyruvate, 1 U/ml of penicillin and 1 μg of streptomycin. HCT116 cells were cultivated in McCoy's containing RPMI 1640 containing 2 mM L-Glutamine, 5% FBS, 1 U/ml of penicillin and 1 μg of streptomycin. A2780 cells were cultivated in RPMI 1640 containing 2 mM L-Glutamine, 5% FBS, 1 U/ml of penicillin and 1 μg of streptomycin. HEP3B cells were cultivated in EMEM containing 2 mM L-glutamine, 5% FBS, 1% non essential amino acid, 1 mM Na Pyruvate, 1 U/ml of penicillin and 1 μg of streptomycin. PC3 cells were cultivated in F12K, 2 mM L-glutamine, 5% FBS, 1 U/ml of penicillin and 1 μg of streptomycin. PC3, Colo205, and HCT116 cells were seeded in 96-wells plate at 1000, 5000 and 6000 cells per well respectively. A2780 and HEP3B cells were seeded in 96-wells plate at 4000 cells per well respectively. The plates were incubated at 37° C., 5% CO2, for 24 h. Cells were treated with compounds at various concentrations for 96 h. Cell growth was then monitored using CyQUANT® cell proliferation assay (Invitrogen Pte Ltd). Dose response curves were plotted to determine GI50 values for the compounds using XL-fit (ID Business Solution, Emeryville, Calif.). GI50 is defined as the concentration of compound required for 50% inhibition of cell growth.

A further data set relates to PC3. Description: Cell-based proliferation assay for GI50 (CyQUANT), PC3. The following applies: Homo sapiens, PC-3; PC3, 96 h treatment; read-out: Cellular or Growth Inhibition Activity, GI50, PC3. The procedure:
as §1

Data set [1] in a line: Measurement of microsomal stability. The class given is in vitro ADME. The following applies: pooled human liver microsomes, pH 7.4; human liver microsome, 5 μM test compound, 1.0 mg/ml microsomal protein.
Data set [2] is described as follows: In vivo pharmacokinetic (PK) studies. The conditions noted are these: mouse, plasma, po; mice, hydrochloric acid salt form (2HCl), 50 mg/kg. As for the experimental part: Compound was dissolved in appropriate solution (saline or DMA and Cremaphor in saline) at 1 mg/ml for intravenous (IV) administration, or in 0.5% methyl cellulose, 0.1% Tween 80 in water at 5 mg/ml for oral administration. Mice were randomized according to body weight, grouped three per time point. Mice were administered single IV dose (10 mg/kg) via tail vein, or single oral dose (50 mg/kg) via gavage. At pre-defined time points (predose, 5 or 10, 30 min, 1, 2, 4, 8, and 24 h), one group of mice was sacrificed by overdose CO2 and blood samples were collected by cardiac puncture. The blood samples were centrifuged immediately for 10 min at 3000 rpm to separate plasma, and plasma was kept frozen at −80° C. until analysis by LC/MS/MS. Before sample analysis, the method was developed for LC/MS/MS assay. The method was validated for signal-response of the calibration standards, auto-sampler stability for ˜15 hours intra-day and inter-day calibration curve using eight calibration standards excluding the blank plasma. QC samples at three different concentrations in triplicates were prepared to determine the accuracy and precision. The extracted QC samples were compared to unextracted samples to determine the extraction efficiency of the analyte. LLOQ was determined by using triplicate samples of 1 ng/mL and 2 ng/mL to obtain accuracy and precision at the low end. Samples were analysed using the validated method. Data was analyzed by the non-compartmental model using WinNolin 4.0 software (Pharsight, Mountain View, Calif., USA). The mean values for the plasma compound concentration-time profiles were used in mouse PK study.
The PK parameter AUC0-last providing the information on the overall exposure of the drug in vivo is one of the key PK/PD parameters that helps in predicting the efficacy of an anti-cancer compound. The higher the AUC value, the better will be the in vivo efficacy of the compound at similar in vitro potency.

By GI50 is commonly meant the concentration at which growth is held to half of that of the control. For orientation: half-life means how long it takes for the measured level to halve. Low values mean fast loss, high ones slow loss. For orientation: AUC(0-t) means exposure summed from dosing to a finite time, without extrapolation to infinity. For `CCCc1nc2cc(/C=C/C(=O)NO)ccc2n1CCNCCC(C)(C)C` [Compound 130, 3-{1-[2-(3,3-Dimethyl-butylamino)-ethyl]-2-propyl-1H-benzoimidazol-5-yl}-N-hydroxy-acrylamide], the GI50 in the data set on HCT116 and with PC3 was under 500 nM in each case. The molecule also registered a half-life at 5 μM in data set [1] of over 30 min. Also, the AUC(0-t) in data set [2] came out at 1050 ng·h/mL.
